Laboratory results taken from PMC10145898, “Drug Repurposing of FDA Compounds against α-Glucosidase for the Treatment of Type 2 Diabetes: Insights from Molecular Docking and Molecular Dynamics Simulations” (Pharmaceuticals, 2023).

Target: α-glucosidase
Test: pNPG hydrolysis absorbance assay at […] nm, pH […] °C
Assay type: biochemical

IC50: 1.26 ± 0.7 µM
SMILES: COc1cc2c(cc1O)CCN[C@]21CS[C@@H]2c3c(OC(C)=O)c(C)c4c(c3[C@H](COC1=O)N1[C@@H]2[C@H]2c3c(cc(C)c(OC)c3O)C[C@@H]([C@@H]1O)N2C)OCO4 [Trabectedin]
